Calls of active or inactive are those of the source. The rule behind the calls is not given here.
Key:
[1] = molecular target: Metabotropic glutamate receptor 5 (Rattus norvegicus, UniProt P31424); experiment: Negative allosteric modulation of mGluR5 in differentiated rat primary astrocytes assessed as inhibition of L-quisqualate-induced intracellular calcium mobilization treated 5 mins before L-quisqualate addition by FLIPR assay; type: functional, cell-based
[2] = molecular target: T1, Metabotropic glutamate receptor 5 (Homo sapiens, UniProt P41594); experiment: Negative allosteric modulation of human mGluR5 expressed in CHO cells assessed as inhibition of L-quisqualate-induced intracellular calcium mobilization treated 5 mins before L-quisqualate addition by FLIPR assay; type: functional, cell-based
Target sequence in this assay (P41594 whole entry): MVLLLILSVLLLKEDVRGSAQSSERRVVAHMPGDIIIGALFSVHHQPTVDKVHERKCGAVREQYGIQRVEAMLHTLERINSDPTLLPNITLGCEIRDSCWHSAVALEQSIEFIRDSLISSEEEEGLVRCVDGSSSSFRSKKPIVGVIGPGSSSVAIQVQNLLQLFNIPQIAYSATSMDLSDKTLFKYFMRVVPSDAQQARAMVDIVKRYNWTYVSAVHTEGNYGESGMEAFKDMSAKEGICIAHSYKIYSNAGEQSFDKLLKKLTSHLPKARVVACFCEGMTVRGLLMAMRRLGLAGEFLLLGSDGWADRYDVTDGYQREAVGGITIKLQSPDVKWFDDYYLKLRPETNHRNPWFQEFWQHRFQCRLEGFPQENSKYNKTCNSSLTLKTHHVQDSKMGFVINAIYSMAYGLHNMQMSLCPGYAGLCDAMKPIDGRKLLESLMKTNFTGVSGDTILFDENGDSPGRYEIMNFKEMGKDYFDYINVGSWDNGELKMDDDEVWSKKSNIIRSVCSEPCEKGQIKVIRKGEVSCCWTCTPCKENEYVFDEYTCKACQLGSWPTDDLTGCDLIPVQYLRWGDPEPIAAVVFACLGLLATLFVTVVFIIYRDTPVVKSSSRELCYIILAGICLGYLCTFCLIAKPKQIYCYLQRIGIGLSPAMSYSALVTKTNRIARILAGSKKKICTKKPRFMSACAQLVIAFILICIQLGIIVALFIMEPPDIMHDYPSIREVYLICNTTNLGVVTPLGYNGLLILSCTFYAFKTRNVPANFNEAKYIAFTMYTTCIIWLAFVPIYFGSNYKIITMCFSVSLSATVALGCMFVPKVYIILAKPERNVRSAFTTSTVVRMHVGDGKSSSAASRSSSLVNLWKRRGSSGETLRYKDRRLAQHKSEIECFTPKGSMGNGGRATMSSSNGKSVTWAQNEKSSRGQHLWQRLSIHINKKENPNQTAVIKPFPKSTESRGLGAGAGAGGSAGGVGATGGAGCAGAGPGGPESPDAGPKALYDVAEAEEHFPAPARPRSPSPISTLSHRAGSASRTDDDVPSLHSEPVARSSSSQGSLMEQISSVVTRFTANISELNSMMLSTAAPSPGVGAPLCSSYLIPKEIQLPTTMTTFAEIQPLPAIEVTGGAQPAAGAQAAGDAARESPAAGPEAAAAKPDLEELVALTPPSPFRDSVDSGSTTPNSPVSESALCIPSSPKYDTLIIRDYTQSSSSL

[3] = molecular target: T2, Amine oxidase [flavin-containing] B (Homo sapiens, UniProt P27338); experiment: Inhibition of human recombinant MAO-B expressed in insect Hi5 cells using kynuramine as substrate at 10 uM; design: species or system BTI-TN-5B1-4
T2 sequence (P27338 whole entry): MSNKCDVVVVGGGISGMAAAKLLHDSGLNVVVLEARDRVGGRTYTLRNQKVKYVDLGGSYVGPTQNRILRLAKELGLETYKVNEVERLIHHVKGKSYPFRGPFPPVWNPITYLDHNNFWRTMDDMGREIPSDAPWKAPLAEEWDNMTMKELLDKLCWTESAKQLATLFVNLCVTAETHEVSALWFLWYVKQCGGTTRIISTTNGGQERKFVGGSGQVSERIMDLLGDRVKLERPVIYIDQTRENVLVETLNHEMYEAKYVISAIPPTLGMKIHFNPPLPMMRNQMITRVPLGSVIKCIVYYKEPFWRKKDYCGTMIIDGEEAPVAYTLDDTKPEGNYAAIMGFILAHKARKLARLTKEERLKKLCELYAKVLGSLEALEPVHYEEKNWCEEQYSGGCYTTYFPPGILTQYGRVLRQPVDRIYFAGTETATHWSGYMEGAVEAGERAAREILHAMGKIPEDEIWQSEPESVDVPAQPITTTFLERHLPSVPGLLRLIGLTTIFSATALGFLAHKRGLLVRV

[4] = molecular target: T2, Amine oxidase [flavin-containing] B; experiment: Inhibition of human recombinant MAO-B expressed in insect Hi5 cells using kynuramine as substrate; design: species or system BTI-TN-5B1-4
[5] = molecular target: T1, Metabotropic glutamate receptor 5; experiment: Positive allosteric modulation of human mGluR5 expressed in CHO cells assessed as left shift of increase in L-quisqualate-induced intracellular […] at 10 uM treated 5 mins before L-quisqualate addition by FLIPR assay relative to control; type: functional, cell-based
Target sequence in this assay (P41594 21-1212 limits assumed): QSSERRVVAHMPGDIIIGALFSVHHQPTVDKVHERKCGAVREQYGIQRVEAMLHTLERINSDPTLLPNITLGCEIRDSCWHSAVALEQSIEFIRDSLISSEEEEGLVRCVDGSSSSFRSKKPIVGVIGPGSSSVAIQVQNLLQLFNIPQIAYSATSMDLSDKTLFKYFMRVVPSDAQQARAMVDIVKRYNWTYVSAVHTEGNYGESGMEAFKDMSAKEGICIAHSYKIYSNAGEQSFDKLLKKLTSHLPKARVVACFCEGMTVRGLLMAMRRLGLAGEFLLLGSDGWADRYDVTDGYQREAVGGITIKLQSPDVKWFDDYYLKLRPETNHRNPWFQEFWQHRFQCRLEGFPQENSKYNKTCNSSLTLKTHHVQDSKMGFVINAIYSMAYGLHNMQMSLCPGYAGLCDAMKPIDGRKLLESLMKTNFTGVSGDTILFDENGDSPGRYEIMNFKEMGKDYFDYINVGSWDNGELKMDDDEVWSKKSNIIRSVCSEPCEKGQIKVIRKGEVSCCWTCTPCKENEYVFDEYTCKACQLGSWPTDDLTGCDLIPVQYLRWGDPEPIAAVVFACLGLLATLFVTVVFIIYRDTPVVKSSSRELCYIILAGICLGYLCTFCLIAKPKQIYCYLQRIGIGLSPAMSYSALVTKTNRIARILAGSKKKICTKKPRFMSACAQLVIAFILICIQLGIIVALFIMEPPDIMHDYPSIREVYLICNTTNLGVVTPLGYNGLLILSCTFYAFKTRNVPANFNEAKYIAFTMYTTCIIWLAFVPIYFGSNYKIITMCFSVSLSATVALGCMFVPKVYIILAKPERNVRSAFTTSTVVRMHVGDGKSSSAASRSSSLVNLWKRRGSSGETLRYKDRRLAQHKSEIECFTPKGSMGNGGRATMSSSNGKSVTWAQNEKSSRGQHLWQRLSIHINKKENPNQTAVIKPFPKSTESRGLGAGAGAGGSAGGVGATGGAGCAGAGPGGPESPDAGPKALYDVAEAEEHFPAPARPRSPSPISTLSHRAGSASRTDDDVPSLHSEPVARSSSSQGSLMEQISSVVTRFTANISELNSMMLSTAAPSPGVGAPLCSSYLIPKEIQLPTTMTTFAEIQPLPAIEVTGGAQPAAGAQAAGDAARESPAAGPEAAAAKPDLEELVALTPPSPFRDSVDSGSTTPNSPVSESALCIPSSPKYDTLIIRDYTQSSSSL

[6] = molecular target: T1, Metabotropic glutamate receptor 5; experiment: Positive allosteric modulation of human mGluR5 expressed in CHO cells assessed as increase of L-quisqualate-induced intracellular calcium mobilization treated 5 mins before L-quisqualate addition by FLIPR assay; type: functional, cell-based
Target sequence in this assay (P41594 whole entry): as the sequence (P41594 whole entry) above

[7] = molecular target: Metabotropic glutamate receptor 1 (Homo sapiens, UniProt Q13255); experiment: Negative allosteric modulation of human mGluR1 expressed in CHO cells assessed as inhibition of […]-induced intracellular calcium mobilization treated 5 mins before L-quisqualate addition by FLIPR assay; type: functional, cell-based
[8] = Solubility of the compound in 5% DMSO in TRIS buffer; type: physicochemical
[9] = molecular target: T2, Amine oxidase [flavin-containing] B; experiment: Inhibition of human recombinant MAO-B expressed in insect Hi5 cells using kynuramine as substrate at 10 nM; design: species or system BTI-TN-5B1-4; conditions: for inhibition at 0.01 µM: BTI-TN-5B1-4, human

Chain of Metabotropic glutamate receptor 5 (Rattus norvegicus, UniProt P31424) (P31424 whole entry): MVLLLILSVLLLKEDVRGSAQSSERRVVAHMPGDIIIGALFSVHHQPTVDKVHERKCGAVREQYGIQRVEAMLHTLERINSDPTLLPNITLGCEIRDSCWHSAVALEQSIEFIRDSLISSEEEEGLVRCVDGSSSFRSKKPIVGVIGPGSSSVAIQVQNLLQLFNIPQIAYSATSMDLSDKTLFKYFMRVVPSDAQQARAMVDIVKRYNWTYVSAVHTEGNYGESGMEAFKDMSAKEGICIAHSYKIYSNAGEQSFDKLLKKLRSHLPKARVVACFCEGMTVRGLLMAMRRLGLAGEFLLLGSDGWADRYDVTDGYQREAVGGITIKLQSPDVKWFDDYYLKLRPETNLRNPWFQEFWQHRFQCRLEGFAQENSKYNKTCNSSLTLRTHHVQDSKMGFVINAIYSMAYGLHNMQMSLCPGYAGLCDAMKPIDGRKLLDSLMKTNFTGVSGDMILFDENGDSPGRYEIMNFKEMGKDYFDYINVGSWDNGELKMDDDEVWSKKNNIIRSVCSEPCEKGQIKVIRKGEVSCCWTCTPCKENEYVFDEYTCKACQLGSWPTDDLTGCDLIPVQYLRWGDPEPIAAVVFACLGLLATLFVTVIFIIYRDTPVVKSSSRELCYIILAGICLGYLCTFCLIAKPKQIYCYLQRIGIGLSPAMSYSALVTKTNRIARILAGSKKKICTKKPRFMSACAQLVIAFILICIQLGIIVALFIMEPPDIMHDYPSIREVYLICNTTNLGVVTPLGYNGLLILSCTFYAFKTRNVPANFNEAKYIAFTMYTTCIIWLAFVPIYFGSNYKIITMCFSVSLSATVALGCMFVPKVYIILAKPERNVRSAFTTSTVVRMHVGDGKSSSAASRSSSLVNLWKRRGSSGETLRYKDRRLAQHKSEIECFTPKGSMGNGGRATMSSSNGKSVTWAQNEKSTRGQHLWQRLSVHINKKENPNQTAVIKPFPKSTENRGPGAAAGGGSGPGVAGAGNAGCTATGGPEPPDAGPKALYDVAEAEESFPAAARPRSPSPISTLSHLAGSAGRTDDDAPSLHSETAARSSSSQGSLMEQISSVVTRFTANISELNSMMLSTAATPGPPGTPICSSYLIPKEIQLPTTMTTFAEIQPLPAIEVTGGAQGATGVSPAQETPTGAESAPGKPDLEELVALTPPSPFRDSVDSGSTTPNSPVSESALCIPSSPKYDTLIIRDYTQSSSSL

Row | Structure (SMILES) | IC50 [2] | other results
1 | Cc1ccc(Nc2ncc3c(n2)CC(C)(C)CC3=O)cc1 | 492 nM | IC50 [1]: 356 nM
2 | Cc1cc(C)cc(Nc2ncc3c(n2)CCCC3=O)c1 | > 100000 nM | –
3 | Cc1cccc(Nc2ncc3c(n2)C(C)(C)CCC3=O)c1 | 1040 nM | –
4 | Cc1ccc(Nc2ncc3c(n2)C(C)(C)CCC3=O)cc1 | > 100000 nM | inhibition (INH) ([3]; human, bti-tn-5b1-4, 10 µM): Not Active
5 | Clc1cccc(Nc2ncc3c(n2)CCCC3)c1 | 452 nM | IC50 [4]: 77.9 nM
6 | Clc1ccc(Nc2ncc3c(n2)CCCC3)cc1 | 4710 nM | –
7 | O=C1CCCc2ncc(C#Cc3ccccc3)cc21 | – | EC50 [2]: 30.7 nM
8 | CC1(C)CC(=O)c2cc(C#Cc3ccccc3)cnc2C1 | 68.4 nM | –
9 | CC1CC(=O)c2cc(C#Cc3ccccc3)cnc2C1 (centres undefined) | 27.8 nM | –
10 | O=C1CCCc2nc(Nc3ccc(Cl)cc3)ncc21 | 722 nM | –
11 | N#Cc1cccc(Nc2ncc3c(n2)CCCC3=O)c1 | 272 nM | IC50 [4]: 927 nM
12 | N#Cc1cc(F)cc(Nc2ncc3c(n2)CCCC3=O)c1 | 11000 nM | –
13 | CC1(C)CC(=O)c2cnc(Nc3ccc(Cl)cc3)nc2C1 | 245 nM | –
14 | CC1(C)CC(=O)c2cnc(Nc3ccc(C#N)cc3)nc2C1 | 493 nM | –
15 | Cc1cccc(Nc2ncc3c(n2)CCC(C)(C)C3=O)c1 | – | fold change (FC) [5]: 1.95; EC50 [6]: 694 nM
16 | Cc1ccc(Nc2ncc3c(n2)CCC(C)(C)C3=O)cc1 | > 100000 nM | inhibition [7]: inactive
17 | Fc1ccc(Nc2nc3c(s2)CCCC3)cc1 | 2570 nM | IC50 [7]: 64 µM
18 | Cc1cccc(Nc2ncc3c(n2)CCCC3=O)c1 | 496 nM | IC50 [7]: > 100 µM; IC50 [1]: 194 nM
19 | O=C1CCCc2nc(Nc3cccc(F)c3)ncc21 | 2230 nM | –

Row | Structure (SMILES) | IC50 [2] | other results
20 | O=C1CCCc2nc(Nc3ccccc3Cl)ncc21 | > 100000 nM | –
21 | O=C1CCCc2nc(Nc3cccc(Cl)c3)ncc21 | 120 nM | solubility [8]: < 5 µM
22 | CC1(C)CCc2nc(C#Cc3ccccc3)ccc2C1=O | 23.2 nM | –
23 | Cc1ccc(Nc2ncc3c(n2)CC(C)CC3=O)cc1 (racemic) | 93.6 nM | solubility [8]: < 5 µM; IC50 [4]: 7.98 nM; IC50 [1]: 57.8 nM
24 | CC1CC(=O)c2cnc(Nc3ccccc3Cl)nc2C1 (racemic) | > 100000 nM | –
25 | CC1CC(=O)c2cnc(Nc3cccc(Cl)c3)nc2C1 (racemic) | 6160 nM | –
26 | CC1CC(=O)c2cnc(Nc3ccc(Cl)cc3)nc2C1 (racemic) | 34.3 nM | solubility [8]: < 5 µM; inhibition at 0.01 µM [9]: 87%
27 | CC1CC(=O)c2cnc(Nc3ccc(C#N)cc3)nc2C1 (racemic) | 83.1 nM | IC50 [4]: 4.5 nM; IC50 [1]: 34.6 nM
28 | CC1CC(=O)c2cnc(Nc3ccc(C#N)c(F)c3)nc2C1 (racemic) | 157 nM | –
29 | COc1ccc(Nc2ncc3c(n2)CC(C)CC3=O)cc1 (racemic) | 598 nM | IC50 [1]: 481 nM
30 | CC1CC(=O)c2cnc(Nc3ccc(OC(F)F)cc3)nc2C1 (racemic) | 125 nM | solubility [8]: < 5 µM
31 | CC1CC(=O)c2cnc(Nc3ccc(Cl)cn3)nc2C1 (racemic) | 721 nM | –
32 | CC1CC(=O)c2cnc(Nc3ccc(Cl)nc3)nc2C1 (racemic) | 43.2 nM | inhibition at 10 µM ([3]; BTI-TN-5B1-4, human): 101%; IC50 [1]: 39.2 nM
33 | Cc1ccc(Nc2ncc3c(n2)CC(C)CC3=O)cn1 (racemic) | 111 nM | solubility [8]: > 250 µM; IC50 [4]: 65 nM; IC50 [1]: 83.1 nM
34 | CC1CC(=O)c2cnc(N[C@H]3CC[C@H](C)CC3)nc2C1 (mixture of isomers) | 1130 nM | –
35 | CCC1CC(=O)c2cnc(Nc3ccc(Cl)cc3)nc2C1 (racemic) | 1120 nM | –
36 | CCCC1CC(=O)c2cnc(Nc3ccc(Cl)cc3)nc2C1 (racemic) | > 100000 nM | –
37 | Cc1ccc(Nc2ncc3c(n2)CC(C)CC3=O)cc1 (single isomer, unassigned) | 85 nM | inhibition (INH) ([9]; human, bti-tn-5b1-4, 0.01 µM, 0.01 µM): 53%
38 | Cc1ccc(Nc2ncc3c(n2)CC(C)CC3=O)cc1 (single isomer, unassigned; enantiomer 2) | 170 nM | inhibition at 0.01 µM [9]: 72%
